Reference: PubChem BioAssay (NCI)
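Protocol summary: plate cells (96-well), add compound at 5 concentrations, incubate 48 h, interpolate endpoints linearly. TGI: concentration producing complete growth inhibition.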

Experiments:
Experiment in all cases: NCI tumour cell line growth inhibition, 48 h
UACC-62 melanoma = test system: UACC-62 melanoma
CAKI-1 renal = test system: CAKI-1 renal
786-0 renal = test system: 786-0 renal
HT29 colon = test system: HT29 colon
HOP-62 NSCLC = test system: HOP-62 NSCLC
HCT-15 colon = test system: HCT-15 colon
NCI-H23 lung = test system: NCI-H23 lung
DU-145 prostate = test system: DU-145 prostate
UACC-257 melanoma = test system: UACC-257 melanoma
SK-MEL-2 melanoma = test system: SK-MEL-2 melanoma
NCI-H226 lung = test system: NCI-H226 lung

SMILES	TGI (UACC-62 melanoma) [µM]	TGI (CAKI-1 renal) [µM]	TGI (786-0 renal) [µM]	TGI (HT29 colon) [µM]	TGI (HOP-62 NSCLC) [µM]	TGI (HCT-15 colon) [µM]	TGI (NCI-H23 lung) [µM]	TGI (DU-145 prostate) [µM]	TGI (UACC-257 melanoma) [µM]	TGI (SK-MEL-2 melanoma) [µM]	TGI (NCI-H226 lung) [µM]
c1coc(-c2nccc3c2[nH]c2ccccc23)c1	> 100	> 100	> 100	> 100	> 100	> 100	> 100	> 100	> 100	> 100	95.8
Cn1c2ccc(F)cc2c2ccc3c(c21)C(=O)C=CC3=O	> 61.3	11.8	8.21	49.2	> 100	28.3	31.4	43.3	30.9	> 74.2	> 91.3
Cc1cc2cc3cc(C)c(N)cc3nc2cc1N	2.3	2.64	1.75	1.6	1.32	2.2	2.24	1.87	8.57	10.4	11.7
CN(C)CN1CSC(=S)N(CN(C)C)C1	> 100	> 100	> 100	> 100	> 100	> 100	> 100	> 100	> 100	96.3	> 100
Clc1ccc(CCNC2(c3cc4ccccc4s3)CCCCC2)cc1Cl	37.2	> 100	36.8	87.1	84.3	37.7	> 100	> 100	42.7	36.8	40.7
COC(C/C(=C/CO[Si](C(C)C)(C(C)C)C(C)C)C(=O)N(C(=O)OC(C)(C)C)c1ccccc1I)OC	> 100	> 100	> 100	> 100	> 100	> 100	> 100	> 100	> 100	37.5	> 100
CC(=O)OCC1OC(n2cnc3nc(Br)[nH]c(=O)c32)C(OC(C)=O)C1OC(C)=O (stereo not drawn)	> 100	> 100	> 100	> 100	> 100	> 100	> 100	> 100	> 100	> 100	> 100
CN(C)Cc1c(O)ccc2c1c1c(n2C)C(=O)c2ccccc2C1=O	18.2	70.3	> 100	5.19	> 100	> 100	27.4	> 100	23.9	24.8	38.1
Cn1c(-c2ccc(-c3cc(-c4cccs4)c(-c4cccs4)n3C)cc2)cc(-c2cccs2)c1-c1cccs1	> 100	> 100	> 100	> 100	> 100	> 100		> 100	> 100	> 100	> 100
COc1ccccc1NC(=S)N=Nc1c(O)[nH]c2ccccc12	> 100	> 100	> 100	> 100	> 100	> 100	> 100	13.7	> 100	> 100	> 100
O=C1/C(=C/c2ccc(O)cc2)CCCC1CN1CCCCC1 (stereo not drawn)	3.46	8.3	2.38	6.91	29.8	2.71	11.8	16.6	6.72	26.9	18.2
Cc1ncc([N+](=O)[O-])n1CC[N+](C)([O-])CCCCn1ccnc1[N+](=O)[O-] (stereo not drawn)	> 100	> 100	> 100	> 100	> 100	> 100	> 100	> 100	> 100	> 100	> 100
COC(=O)c1c(O)ccc2c1c1cc3ccccc3cc1n2Cc1cc(OC)cc(OC)c1	> 100	> 28.4	> 100	> 48.1	> 100	> 100	> 100	59.1	> 100	24.6	> 100
CC(C)NC(=O)OCc1c(COC(=O)NC(C)C)c(-c2ccc[n+](COC(=O)Cc3ccccc3)c2)n2c1CCC2	44.7	34	44.4	> 100	> 100	> 100	69.6	67.7	> 100	62.1	> 100
CC(C)(C)NC1=NC(C(F)(F)F)(C(F)(F)F)NC(=O)N1	> 100	> 100	> 100	> 100	> 100	> 100	> 100	> 100	> 100	> 100	> 100
COC(=O)CNC(=O)C(Cc1ccccc1)NC(=O)c1ccc(-c2ccc(Cl)cc2Cl)o1 (stereo not drawn)	65.1	77.6	38.7	52.7	78.8	89.4	> 100	> 100	57.5	96.6	> 100
COc1cc(C2S/C(=C/c3ccccc3)C(=O)N2Cc2ccccc2)cc(OC)c1OC (stereo not drawn)	> 100	> 100	> 100	> 100	> 100	> 100	> 100	> 100	> 100	> 100	> 100
CC(C)(C)COC(=O)C(C)(C)NC(=O)C(CC(=O)OCc1ccccc1)NC(=O)OCc1ccccc1 (stereo not drawn)	80	> 100	> 100	87.9	> 100	69.1	> 100	> 100	82.1	> 100	85.2
Cc1nnc(N)nc1/C=C\c1ccc(Cl)cc1Cl	> 100	> 100	> 100	41.7	36.3	> 100	> 100	> 100	> 100	32.6	46.2
